Laboratory results taken from US20050131739A1, “Methods for monitoring severity of panic attacks and other rapidly evolving medical events in real time” (Alexza Molecular Delivery Corporation, priority 2003, published 2005).

Test system: acute panic attacks in patients with panic disorder
Assay: Double-blind, randomized, placebo-controlled clinical trial of alprazolam delivered by inhalation; panic recorded with patient experience diary (PED)
Type: in vivo
Conditions: for mean peak panic severity / mean panic severity at 12 minutes: 11-point visual analogue scale; for mean panic severity at 12 minutes: 12 minutes following use of the inhaler
Protocol: To determine the efficacy of alprazolam delivered by inhalation in the treatment of acute panic attacks, a clinical trial is conducted. The objectives of the trial are to determine the effectiveness of alprazolam delivered by inhalation at the time of onset of panic symptoms in decreasing the duration and/or severity of acute panic attacks in patients with panic disorder. The duration and severity of acute panic symptoms are measured using a patient experience diary (PED) for the real time assessment of severity of panic attacks. Patients are recruited for the study by posting in various public locations and medical clinics advertisements seeking patients who experience 2 or more panic attacks per week for participation in the study. To enroll patients who have not previously been treated for panic, the advertisement may include a description of panic symptoms, so that patients who experience panic attacks without being aware that such attacks constitute a medical condition are encouraged to volunteer.
The overall study design is a double-blind, randomized, placebo-controlled clinical trial. Patients 18-65 years of age reporting at least 2 panic attacks per week, without history of psychotic disorders, substance abuse disorders, dementia, or severe or life-threatening medical disorders such as serious heart or lung disease, eligible for the study. Patients not currently on medication for panic disorder, as well as patients currently using a stable dose of selective serotonin reuptake inhibitor (SSRI) the treatment of panic disorder are eligible for the study, as are patients currently taking alprazolam or other benzodiazepines on a PRN basis, if the patients agree not to use such drugs during the study period. Patients using chronic benzodiazepines or other sedative hypnotics for the treatment of panic disorder are excluded from the study, as are patients using psychotropic medications other than SSRIs or unstable SSRI doses. Eligible patients are enrolled in the study after being explained the risks and benefits of the study and signing informed consent.
The patients are then trained in use of the PED described in Examples 1 and 2 above, set to an every 3 minute prompting interval. After being trained in use of the PED, the patients then take the PED home for 3 weeks of use. During these 3 weeks, patients must record at least one panic attack per week in the diary of duration greater than 12 minutes (time from initial diary entry until the patient answers “not at all” to the item regarding the severity of their panic symptoms right now) to proceed to the randomization point in the study. Patients recording less than one panic attack per week, only very brief (less than 12 minute duration panic attacks), or having difficulty using the diary are dropped from the study. At this point, continuing patients are randomized to receive placebo inhaler, inhaler dispensing alprazolam 0.25 mg as an aerosol having an approximately 2 μm mass median aerodynamic diameter (MMAD), or inhaler dispensing alprazolam 0.5 mg as an aerosol having an approximately 2 μm MMAD. Patients are given four identical inhalers each, and instructed to use the inhalers at the time of their next 4 panic attacks (only 1 inhaler per attack). In particular, the patients are instructed to start the PED at the initiation of panic symptoms before taking their medication, to take the medication when prompted by the PED, and then to record the course of the panic attack after taking the medication as prompted by the PED.
Data from the 4 panic attacks during which the inhaler is used as panic treatment are recorded in the PED and transmitted to a central data storage site. The data is analyzed after each patient records 4 panic attacks, or after 8 weeks passes from the time the patient received the inhalers. […]

## Cc1nnc2n1-c1ccc(Cl)cc1C(c1ccccc1)=NC2 [alprazolam, 8-chloro-1-methyl-6-phenyl-4H-[1,2,4]triazolo[4,3-α] [1,4]benzodiazepine]
Alprazolam 0.25 mg by inhaler
  mean peak panic severity: 6
  mean panic severity at 12 minutes: 3 out of 10
Alprazolam 0.5 mg by inhaler
  mean peak panic severity: 6
  mean panic severity at 12 minutes: 1.5 out of 10
Patients receiving alprazolam 0.25 mg by inhaler (aerosol, approx. 2 μm MMAD) at onset of panic attack
  mean duration of panic: 20 min
Patients receiving alprazolam 0.5 mg by inhaler (aerosol, approx. 2 μm MMAD) at onset of panic attack
  mean duration of panic: 10 min
